Source: publication PMC10480161, “Identification of potent and selective N-myristoyltransferase inhibitors of Plasmodium vivax liver stage hypnozoites and schizonts” (Nature Communications, 2023)
pIC50: −log10 of the molar value. Several values for one entry are separate records, joined by “and”; a condition that tells them apart may be missing. Equal entries are not always repeated.

Assays:
[1] = tested on: primary human hepatocytes; test: Nuclear counts (DAPI) in P. vivax-infected primary hepatocytes as measure of toxicity; type: cell-based; details: two technical replicates
Protocol: Accordingly, we applied dose–response curves of all the tested NMTs on parasite isolates 2 and 3 over concentrations up to 20 µM (Fig. 5c, d, Source Data file). […] Nuclei were counted in each well using DAPI staining as a measure of toxicity (Supplementary Fig. 86, Supplementary Source data). We used the phosphatidylinositol 4-kinase inhibitor (PI4Ki), MMV390048, as a positive control for eliminating schizonts[37],[38].
Plasmodium vivax liver stage assays were performed as described previously. Cryopreserved primary human hepatocytes (Cat No. F00995-P) and hepatocyte culture medium (HCM) (InVitroGroTM CP Medium) were obtained from Bioreclamation IVT, Inc., (Baltimore, MD, USA). Briefly, we seeded 384-well plates with primary hepatocytes from a single donor lot at a density of 25,000 cells per well. We then infected the hepatocytes with 14,000 freshly hand-dissected sporozoites per well. Cells were exposed to the compounds at indicated concentrations from day 5 post-infection. We used Pi4K inhibitor MMV390048, at 20 µM, as a positive control to eliminate P. vivax liver schizonts. We then proceeded to feed cultures every day, replacing the compounds until day 8 post-infection. Cells were fixed with 4% PFA, permeabilized with 1% Triton X-100, blocked with 2% BSA, and stained with DAPI and PvUIS4 antibodies to detect schizonts and hypnozoites forms by confocal microscopy. […] DAPI was diluted 1:2000. The images were processed, analyzed and outlier cells were removed using IMARIS (Bitplane Inc.) image analysis software.
Supplementary Fig. 86. […] Nuclear […]
counts, normalized to DMSO controls, for NMT inhibitors across a dose response. Counts were ob-tained using DAPI staining from the P. vivax-infected wells quantified in Fig. 5d. Error bars represent the standard deviation of two technical replicates.
(1 picture or pasted object on this page, not shown here)

[2] = tested on: HepG2 cells; test: HepG2 cytotoxicity assay (Live/Dead staining); details: for Percentage of live HepG2 cells compared with diluent controls: replicates
How it was run: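 HepG2 cells (5000/well) treated with compounds at 1 to 20 µM, re-dosed with fresh compound every 24 h. Viability scored at 72 h by calcein-AM/ethidium homodimer (1 µM each, 10 min, 37 °C) live/dead staining under fluorescence microscopy.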

[3] = tested on: P. vivax schizonts; test: P. vivax liver stage assay, schizonts; type: cell-based, Plasmodium vivax; details: for Number of liverstage Schizonts per well: 20 µM, 8 dpi; for pIC50: primary human hepatocytes, treatment day 5 to 8 post-infection, isolates 2 and 3
How it was run: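 Primary human hepatocytes (single donor, 25,000/well) infected with 14,000 P. vivax sporozoites per well from patient isolates; compounds (up to 20 µM) given daily from day 5 to day 8 post-infection. Schizonts counted by PvUIS4/DAPI confocal imaging; DAPI nuclei count used as toxicity measure.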

[4] = tested on: P. vivax hypnozoites; test: P. vivax liver stage assay, hypnozoites; type: cell-based, Plasmodium vivax; details: for Hypnozoites per well: Isolate 2, replicate wells (Figure 6d); for Number of liverstage hypnozoites per well: 20 µM, 8 dpi; for pIC50: primary human hepatocytes, treatment day 5 to 8 post-infection, isolate 2
Protocol: Finally, we evaluated the NMT-binding compounds against non-developing P. vivax hypnozoites. […] (Fig. 6A). […] We, therefore, evaluated the impact of all tested compounds on P. vivax hypnozoites using these two isolates.
Plasmodium vivax liver stage assays were performed as described previously. Cryopreserved primary human hepatocytes (Cat No. F00995-P) and hepatocyte culture medium (HCM) (InVitroGroTM CP Medium) were obtained from Bioreclamation IVT, Inc., (Baltimore, MD, USA). Briefly, we seeded 384-well plates with primary hepatocytes from a single donor lot at a density of 25,000 cells per well. We then infected the hepatocytes with 14,000 freshly hand-dissected sporozoites per well. Cells were exposed to the compounds at indicated concentrations from day 5 post-infection. We used Pi4K inhibitor MMV390048, at 20 µM, as a positive control to eliminate P. vivax liver schizonts. We then proceeded to feed cultures every day, replacing the compounds until day 8 post-infection. Cells were fixed with 4% PFA, permeabilized with 1% Triton X-100, blocked with 2% BSA, and stained with DAPI and PvUIS4 antibodies to detect schizonts and hypnozoites forms by confocal microscopy. For antibody dilutions, PvUIS4 (kind gift from Dr. Noah Sather, Seattle Children’s Research Institute) was diluted 1:250 and the secondary antibody was anti-mouse AlexaFluor-594 (Cat # A-11005; RRID: AB_2534073) diluted 1:1000. DAPI was diluted 1:2000. The images were processed, analyzed and outlier cells were removed using IMARIS (Bitplane Inc.) image analysis software.

[5] = isolate 1, technical replicates (Fig. 5b)
[6] = isolate 2, technical replicates (Fig. 5b)
[7] = isolate 3, technical replicates (Fig. 5b)
[8] = isolate 1, technical replicates (Fig. 6C)
[9] = isolate 2, technical replicates (Fig. 6C)
[10] = isolate 3, technical replicates (Fig. 6C)
[11] = Plasmodium vivax, Hepatocyte, 120 h

Compound	Nucleus counts per well ([1]; 1 uM)	Nucleus counts per well ([1]; 2.5uM)	Nucleus counts per well ([1]; 5 uM)	Nucleus counts per well ([1]; 10uM)	Nucleus counts per well ([1]; 20uM, P. vivax-infected wells)	Percentage of live HepG2 cells compared with diluent controls ([2]; 1 μM)	Percentage of live HepG2 cells compared with diluent controls ([2]; 2.5 μM)	Percentage of live HepG2 cells compared with diluent controls ([2]; 5 μM)	Percentage of live HepG2 cells compared with diluent controls ([2]; 10 μM)	Percentage of live HepG2 cells compared with diluent controls ([2]; 20 μM)	Number of liverstage Schizonts per well [3, 5]	Number of liverstage Schizonts per well [3, 6]	Number of liverstage Schizonts per well [3, 7]	Schizonts per well ([3]; Isolate 2, 1.25 uM)	Schizonts per well ([3]; Isolate 2, 2.5 uM)	Schizonts per well ([3]; Isolate 2, 5 uM)	Schizonts per well ([3]; Isolate 2, 10 uM)	Schizonts per well ([3]; Isolate 3, 1.25 uM)	Schizonts per well ([3]; Isolate 3, 2.5 uM)	Schizonts per well ([3]; Isolate 3, 5 uM)	other results
Cc1n[nH]c(C)c1CCOc1cc(F)ccc1-c1ccnc(N2CCNCC2)c1 [Compound 12q]	14830 per well and 14410 per well	12630 per well and 14350 per well	13780 per well and 14410 per well	15080 per well and 12510 per well	12010 per well and 14890 per well	99.2906% and 100.564%	95.6786% and 92.2225%	91.8587% and 84.219%	83.4135% and 96.0684%	80.0613% and 94.8991%	0 per well (2×) and 1 per well	3 per well and 4 per well and 1 per well	3 per well and 7 per well	11 per well and 15 per well and 12 per well	7 per well and 9 per well and 13 per well	9 per well and 11 per well and 12 per well	7 per well and 5 per well and 6 per well	12 per well and 13 per well	6 per well and 11 per well	7 per well and 6 per well	pIC50 [2]: < 4.70; Schizonts per well ([3]; Isolate 3, 10 uM): 5 per well and 8 per well; schizonts (fold change to DMSO) mean diff ([3]; isolate 1, 20 µM): 0.983; schizonts (fold change to DMSO) mean diff ([3]; isolate 2, 20 µM): 0.8491; schizonts (fold change to DMSO) mean diff ([3]; isolate 3, 20 µM): 0.6591; pIC50 [3]: 5.46 to 5.66; Hypnozoites per well ([4]; 1.25 uM): 11 and 8 and 10; Hypnozoites per well ([4]; 2.5 uM): 8 and 5 and 7; Hypnozoites per well ([4]; 5 uM): 5 and 6 and 3; Hypnozoites per well ([4]; 10 uM): 5 and 0 and 3; Number of liverstage hypnozoites per well [4, 8]: 0 per well (2×) and 1 per well; Number of liverstage hypnozoites per well [4, 9]: 1 per well (2×) and 0 per well; Number of liverstage hypnozoites per well [4, 10]: 0 per well; Hypnozoites per well ([4]; 20 uM): 1 (2×) and 0; hypnozoites (fold change to DMSO) mean diff ([4]; isolate 1, 20 µM): 0.939; hypnozoites (fold change to DMSO) mean diff ([4]; isolate 2, 20 µM): 0.931; pIC50 [4]: 5.36
Cc1nn(C)c(C)c1CCOc1cc(F)ccc1-c1cccc(OCCN(C)C)c1 [Compound 26c]	16190 per well and 15050 per well	15160 per well and 15950 per well	16180 per well and 14300 per well	14610 per well and 15250 per well	12520 per well and 13160 per well	106.359% and 107.918%	107.866% and 101.058%	101.681% and 95.3408%	87.7011% and 97.3677%	83.4394% and 83.5174%	0 per well	3 per well and 0 per well (2×)	2 per well and 1 per well	14 per well and 13 per well and 12 per well	10 per well and 15 per well and 13 per well	7 per well and 12 per well and 8 per well	5 per well and 3 per well and 6 per well	11 per well and 9 per well	6 per well and 10 per well	7 per well and 5 per well	Schizonts per well ([3]; Isolate 3, 10 uM): 4 per well and 2 per well; Schizonts per well ([3]; Isolate 3, 20 uM (Fig. 5c-d)): 2 per well and 1 per well; pIC50 [3, 11]: 5.38 to 5.55; schizonts (fold change to DMSO) mean diff ([3]; isolate 1, 20 µM): 1.000; schizonts (fold change to DMSO) mean diff ([3]; isolate 2, 20 µM): 0.9434; schizonts (fold change to DMSO) mean diff ([3]; isolate 3, 20 µM): 0.8977; Hypnozoites per well ([4]; 1.25 uM): 7 and 11 and 8; Hypnozoites per well ([4]; 2.5 uM): 6 and 5 and 7; Hypnozoites per well ([4]; 5 uM): 6 (2×) and 3; Hypnozoites per well ([4]; 10 uM): 3 and 2 and 7; Number of liverstage hypnozoites per well [4, 8]: 4 per well and 0 per well (2×); Number of liverstage hypnozoites per well [4, 9]: 4 per well and 0 per well (2×); Number of liverstage hypnozoites per well [4, 10]: 0 per well (2×) and 1 per well; Hypnozoites per well ([4]; 20 uM): 4 and 0 (2×); pIC50 [4, 11]: 5.38; hypnozoites (fold change to DMSO) mean diff ([4]; isolate 1, 20 µM): 0.923; hypnozoites (fold change to DMSO) mean diff ([4]; isolate 2, 20 µM): 0.862
